Reference: patent publication US20250034159A1, “INHIBITORS OF EPIDERMAL GROWTH FACTOR RECEPTOR” (ORIC Pharmaceuticals, Inc., priority 2021, published 2025)

Tests used:
[1] = tested on: Ba/F3_EGFR WT cells; assay: Biological Activity Assay D: BaF3 cell proliferation assay, EGFR wild-type (BaF3 WT); type: cell-based; conditions: Ba/F3 EGFR; Ba/F3_EGFR WT cells, ~72 hours, CellTiter-Glo; read-out: BaF3 WT IC50
[2] = tested on: BaF3_EGFR d19/CS cells; assay: Biological Activity Assay D: BaF3 cell proliferation assay, EGFR exon 19 deletion/C797S (BaF3 d19/CS); type: cell-based; conditions: Ba/F3 EGFR; BaF3_EGFR d19/CS cells, ~72 hours, CellTiter-Glo; read-out: BaF3 d19/CS IC50
[3] = biological target: recombinant human EGFR L858R/C797S double mutant protein (Homo sapiens (Human), UniProt P00533, C797S/L858R); assay: Biological Activity Assay B: biochemical assay against EGFR L858R/C797S protein (EGFR LR/CS)
In short: (§1)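 Compounds were tested as 16-point serial dilutions (final DMSO 2.5%) with a Phosphosens peptide sensor/ATP working solution (40 uM/4 mM). The signal was read kinetically over 90 cycles at 120 s intervals. IC50s came from 4-parameter fits of per-well slopes.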

[4] = tested on: BaF3_EGFR LR/CS cells; assay: Biological Activity Assay D: BaF3 cell proliferation assay, EGFR L858R/C797S mutant (BaF3 LR/CS); type: cell-based; conditions: Ba/F3 EGFR; BaF3_EGFR LR/CS cells, ~72 hours, CellTiter-Glo; read-out: BaF3 LR/CS IC50
[5] = biological target: recombinant human EGFR exon 19 deletion/C797S double mutant protein (Homo sapiens (Human), UniProt P00533, C797S/DEL746-750); assay: Biological Activity Assay C: biochemical assay against EGFR exon 19 deletion/C797S protein (EGFR d19/CS)
In short: as §1

recombinant human EGFR exon 19 deletion/C797S double mutant protein, sequence (P00533 other isoform, or with tags, fused parts or gaps C797S/del 1-668/del 746-750 limits assumed): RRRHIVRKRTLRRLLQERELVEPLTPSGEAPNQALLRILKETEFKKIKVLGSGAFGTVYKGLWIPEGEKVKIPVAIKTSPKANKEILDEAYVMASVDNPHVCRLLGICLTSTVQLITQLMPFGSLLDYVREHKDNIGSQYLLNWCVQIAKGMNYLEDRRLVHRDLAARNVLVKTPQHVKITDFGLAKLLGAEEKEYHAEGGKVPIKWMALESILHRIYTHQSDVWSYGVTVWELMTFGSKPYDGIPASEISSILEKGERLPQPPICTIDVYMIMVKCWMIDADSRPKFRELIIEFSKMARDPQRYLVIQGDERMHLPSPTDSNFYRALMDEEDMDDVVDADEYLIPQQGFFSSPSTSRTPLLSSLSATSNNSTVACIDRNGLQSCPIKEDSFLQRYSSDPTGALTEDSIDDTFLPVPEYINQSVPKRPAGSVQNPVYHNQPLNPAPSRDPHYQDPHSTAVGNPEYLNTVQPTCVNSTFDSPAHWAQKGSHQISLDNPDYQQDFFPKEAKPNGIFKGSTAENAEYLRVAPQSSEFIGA
recombinant human EGFR L858R/C797S double mutant protein, sequence (P00533 25-1210 C797S/L858R): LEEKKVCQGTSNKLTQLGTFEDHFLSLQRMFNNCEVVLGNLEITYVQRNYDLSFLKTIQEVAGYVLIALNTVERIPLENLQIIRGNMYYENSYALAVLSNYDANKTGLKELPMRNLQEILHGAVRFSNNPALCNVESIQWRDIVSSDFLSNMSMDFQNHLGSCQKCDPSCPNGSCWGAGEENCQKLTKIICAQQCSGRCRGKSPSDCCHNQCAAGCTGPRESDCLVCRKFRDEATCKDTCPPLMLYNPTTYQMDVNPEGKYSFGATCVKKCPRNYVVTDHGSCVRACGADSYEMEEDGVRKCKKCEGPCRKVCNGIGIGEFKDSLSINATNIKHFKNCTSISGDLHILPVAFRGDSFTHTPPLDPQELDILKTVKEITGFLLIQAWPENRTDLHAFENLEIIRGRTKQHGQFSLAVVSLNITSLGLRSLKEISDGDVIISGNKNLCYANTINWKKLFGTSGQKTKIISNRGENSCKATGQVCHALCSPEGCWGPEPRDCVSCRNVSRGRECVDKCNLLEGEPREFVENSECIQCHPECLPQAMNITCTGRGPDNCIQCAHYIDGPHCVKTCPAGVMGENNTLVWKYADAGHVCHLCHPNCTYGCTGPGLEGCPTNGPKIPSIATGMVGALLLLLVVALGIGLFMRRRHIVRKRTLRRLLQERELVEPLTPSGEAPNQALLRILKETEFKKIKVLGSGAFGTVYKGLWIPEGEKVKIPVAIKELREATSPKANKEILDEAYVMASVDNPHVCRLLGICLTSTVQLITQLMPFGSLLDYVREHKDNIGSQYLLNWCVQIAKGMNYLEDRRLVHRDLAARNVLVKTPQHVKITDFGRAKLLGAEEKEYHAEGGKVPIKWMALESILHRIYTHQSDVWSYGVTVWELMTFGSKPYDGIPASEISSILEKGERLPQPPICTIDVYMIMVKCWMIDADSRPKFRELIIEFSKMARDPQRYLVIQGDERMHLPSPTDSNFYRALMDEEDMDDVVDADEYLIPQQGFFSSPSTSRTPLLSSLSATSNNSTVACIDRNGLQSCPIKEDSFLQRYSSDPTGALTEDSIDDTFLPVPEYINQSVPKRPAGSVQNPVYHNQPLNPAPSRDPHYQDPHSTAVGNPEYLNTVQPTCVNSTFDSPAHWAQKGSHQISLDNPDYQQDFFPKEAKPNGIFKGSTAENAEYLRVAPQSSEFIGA

Row | SMILES | IC50 [1] | IC50 [2] | IC50 [3] | IC50 [4] | IC50 [5]
1 | CC(C)(O)CCn1nc(-c2ccc(F)cc2)c(-c2ncnc3oc(-c4ccccc4)cc23)n1 [Example 82, 4-[4-(4-fluorophenyl)-5-(6-phenylfuro[2,3-d]pyrimidin-4-yl)-2H-1,2,3-triazol-2-yl]-2-methylbutan-2-ol] | > 20000 nM | 597 nM | 4.33 nM | 392 nM | 2.86 nM
2 | OCCCn1cc(-c2ccnc3[nH]c(-c4ccccc4)nc23)c(-c2ccc(F)cc2)n1 [Example 4, 3-[3-(4-Fluorophenyl)-4-(2-phenyl-3H-imidazo[4,5-b]pyridin-7-yl)-1H-pyrazol-1-yl]propan-1-ol] | 1400 nM | 36.4 nM | 1.29 nM | 32.1 nM | 0.466 nM
3 | O=S1(=O)CC[C@H](n2cc(-c3ncnc4oc(-c5ccccc5)cc34)c(-c3ccc(F)cc3)n2)C1 (single isomer, unassigned) [Example 73] | 2490 nM | 56 nM | 0.77 nM | 80.9 nM | 0.48 nM
4 | CC(C)(O)CCn1cc(-c2ncnc3oc(-c4ccccc4)cc23)c(-c2ccc(F)cc2)n1 [Example 34, 4-[3-(4-fluorophenyl)-4-(6-phenylfuro[2,3-d]pyrimidin-4-yl)-1H-pyrazol-1-yl]-2-methylbutan-2-ol] | 7780 nM | 122 nM | 1.17 nM | 225 nM | 1.59 nM
5 | OCCCCn1nc(-c2ccc(F)cc2)c(-c2ccnc3[nH]c(-c4ccccc4)cc23)n1 [Example 23, 4-[4-(4-Fluorophenyl)-5-(2-phenyl-1H-pyrrolo[2,3-b]pyridin-4-yl)-2H-1,2,3-triazol-2-yl]butan-1-ol] | 2650 nM | 31.9 nM | 1.1 nM | 69.9 nM | 0.633 nM
6 | Fc1ccc(-c2nn(CCCC(F)F)cc2-c2ncnc3oc(-c4ccccc4)cc23)cc1 [Example 45, 4-[1-(4,4-Difluorobutyl)-3-(4-fluorophenyl)-1H-pyrazol-4-yl]-6-phenylfuro[2,3-d]pyrimidine] | 2290 nM | 37.5 nM | 1.12 nM | 185 nM | 1.51 nM
7 | CCC(=O)CCn1cc(-c2ncnc3oc(-c4ccccc4)nc23)c(-c2ccc(F)cc2)n1 [Example 20, 1-[3-(4-fluorophenyl)-4-(2-phenyl[1,3]oxazolo[5,4-d]pyrimidin-7-yl)-1H-pyrazol-1-yl]pentan-3-one] | 5340 nM | 686 nM | 4.92 nM | 578 nM | 4.19 nM
8 | O=S1(=O)CCC[C@@H](n2cc(-c3ncnc4oc(-c5ccccc5)cc34)c(-c3ccc(F)cc3)n2)C1 (single isomer, unassigned) [Example 99] | > 20000 nM | 701 nM | 5.7 nM | 822 nM | 8.51 nM

Stronger by IC50 [1], values ahead:

Row | IC50 [1] | IC50 [2] | IC50 [3] | IC50 [4] | IC50 [5] | SMILES
9 | 667 nM | 23.6 nM | 0.4 nM | 15.7 nM | 0.18 nM | CC(C)(O)Cn1cc(-c2ncnc3oc(-c4ccccc4)cc23)c(-c2ccccc2F)n1 [Example 109, 1-[3-(2-Fluorophenyl)-4-(6-phenylfuro[2,3-d]pyrimidin-4-yl)-1H-pyrazol-1-yl]-2-methylpropan-2-ol]
10 | 373 nM | 20.4 nM | 0.38 nM | 19.9 nM | 0.3 nM | CS(=O)(=O)N1CCC(n2cc(-c3ncnc4oc(-c5ccccc5)cc34)c(-c3ccc(F)cc3)n2)C1 (racemic) [Example 89, 4-{3-(4-fluorophenyl)-1-[1-(methanesulfonyl)pyrrolidin-3-yl]-1H-pyrazol-4-yl}-6-phenylfuro[2,3-d]pyrimidine]
11 | 15.4 nM | 0.547 nM | 0.099 nM | 0.63 nM | 0.121 nM | OCCCn1cc(-c2ncnc3[nH]c(-c4ccccc4)cc23)c(-c2ccc(F)cc2)n1 [Example 9, 3-[3-(4-Fluorophenyl)-4-(6-phenyl-7H-pyrrolo[2,3-d]pyrimidin-4-yl)-1H-pyrazol-1-yl]propan-1-ol]
12 | 38 nM | 1.08 nM | 0.212 nM | 1.16 nM | 0.119 nM | CN1CCN(c2ccc(-c3cc4c(-c5cn(CCCO)nc5-c5ccc(F)cc5)ncnc4o3)cc2)CC1 [Example 33, 3-[3-(4-Fluorophenyl)-4-{6-[4-(4-methylpiperazin-1-yl)phenyl]furo[2,3-d]pyrimidin-4-yl}-1H-pyrazol-1-yl]propan-1-ol]
13 | 816 nM | 3.39 nM | 1.47 nM | 4.38 nM | 1.57 nM | N#Cc1c(-c2ccc(F)cc2)c(-c2ccnc3[nH]c(-c4ccccc4)cc23)nn1CCCO [Example 16, 4-(4-Fluorophenyl)-1-(3-hydroxypropyl)-3-(2-phenyl-1H-pyrrolo[2,3-b]pyridin-4-yl)-1H-pyrazole-5-carbonitrile]
